Measured values taken from US8501981B2, “CXCR2 inhibitors” (SANOFI, priority 2006, dated 2013).
pIC50: −log10 of the molar value.

Biological target: human CXCR2 (Homo sapiens (Human), UniProt P25025)
Assay: Determination of CXCR2 inhibition: Calcium Fluorescence Assay (FLIPR)
Format: cell-based
Details: chemokine IL-8; CHO-K1 cells stably transfected with human CXCR2 and Gα16
Excerpt: Determination of CXCR2 inhibition: Calcium Fluorescence Assay (FLIPR)
The assay is based on the detection of intracellular calcium changes detected by the selective, calcium-chelating dye, Fluo-4 (Molecular Probes). A large fluorescence intensity increase is observed upon calcium association with Fluo-4. […] By co-expressing the CXCR2 receptor and the promiscuous Gα16 protein, activation of this chemokine receptor is directed into this phospholipase C cascade resulting in intracellular calcium mobilization.
The CHO—K1 cells stably transfected with human CXCR2 and the promiscuous Gα16 protein were maintained in a log phase of growth at 37° C. and 5% CO2 in the following media: Iscove's, 10% FBS, 1× Penicillin-Streptomycin, 400 μg/mL g418 and 350 μg/mL Zeocin. Approximately 24-48 hours prior to the assay, 20,000-30,000 cells/well were plated onto a 96-well black/clear bottomed assay plate (Becton Dickinson) with a well volume of 180 μl. For dye-loading the culture medium was carefully removed and replaced by 100 μl/well dye solution (4 μM Fluo-4 in 135 mM NaCl, 5 mM KCl, 1 mM magnesium sulphate, 5 mM glucose, 20 mM hepes, 2.5 mM probenecid; pH 7.4). Cells were incubated for 1 h at 37° C., and then washed 3× with buffer. After washing 90 μl buffer/well were left. Increasing concentrations of compound was added in 45 μl buffer (4× concentrated) followed by 10 min incubation at 37° C. Then the chemokine (10-100 nM) was applied in 45 μl buffer (4× concentrated) and the measurement performed for 2 min. The IC50 value of a compound was determined by calculation of % inhibition of total calcium response to the chemokine.

Chain of human CXCR2 (P25025 whole entry): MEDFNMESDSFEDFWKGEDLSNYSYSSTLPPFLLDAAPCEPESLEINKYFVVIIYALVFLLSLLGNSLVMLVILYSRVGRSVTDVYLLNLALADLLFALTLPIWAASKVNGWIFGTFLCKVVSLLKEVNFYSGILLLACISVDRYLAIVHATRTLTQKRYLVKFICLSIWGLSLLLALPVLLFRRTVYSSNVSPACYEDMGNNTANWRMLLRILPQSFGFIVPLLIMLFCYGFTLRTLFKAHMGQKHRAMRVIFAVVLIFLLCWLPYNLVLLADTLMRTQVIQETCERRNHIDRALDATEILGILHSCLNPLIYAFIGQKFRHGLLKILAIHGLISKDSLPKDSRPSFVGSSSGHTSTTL

pIC50	SMILES
> 5.00	CC(C)(NC(=O)c1cc(F)c2ccccc2c1OCCc1ccccc1)C(=O)O [Example 17, 2-[(4-Fluoro-1-phenethyloxy-naphthalene-2-carbonyl)-amino]-2-methyl-propionic acid]
> 5.00	CC(C)(NC(=O)c1cc(F)c2ccccc2c1OCCCc1ccccc1)C(=O)O [Example 18, 2-{[4-Fluoro-1-(3-phenyl-propoxy)-naphthalene-2-carbonyl]-amino}-2-methyl-propionic acid]
> 5.00	CC(C)(NC(=O)c1cc(F)c2ccccc2c1OCCOc1ccccc1)C(=O)O [Example 20, 2-{[4-Fluoro-1-(2-phenoxy-ethoxy)-naphthalene-2-carbonyl]-amino}-2-methyl-propionic acid]
5.75	CC(C)(NC(=O)c1sc2ccccc2c1OCCOc1ccccc1)C(=O)O [Example 46, 2-Methyl-2-{[3-(2-phenoxy-ethoxy)-benzo[b]thiophene-2-carbonyl]-amino}-propionic acid]
6.04	CC(CCc1ccccc1)Oc1c(C(=O)NC2(C(=O)O)CCCC2)ccc2ccccc12 (centres unmarked) [Example 52, 1-{[1-(1-Methyl-3-phenyl-propoxy)-naphthalene-2-carbonyl]-amino}-cyclopentanecarboxylic acid]
5.59	CC(C)CC(C)(NC(=O)c1ccc2ccccc2c1OCCOc1ccccc1)C(=O)O (centres unmarked) [Example 55, 2,4-Dimethyl-2-{[1-(2-phenoxy-ethoxy)-naphthalene-2-carbonyl]-amino}-pentanoic acid]
5.90	CC(C)(NC(=O)c1ccc2ccccc2c1OCCOc1ccc(F)c(Cl)c1)C(=O)O [Example 73, 2-({1-[2-(3-Chloro-4-fluoro-phenoxy)-ethoxy]-naphthalene-2-carbonyl}-amino)-2-methyl-propionic acid]
> 5.00	O=C(NC1(C(=O)O)CCC1)c1ccc2ccccc2c1OCCC1CCCCC1 [Example 97, 1-{[1-(2-Cyclohexyl-ethoxy)-naphthalene-2-carbonyl]-amino}-cyclobutanecarboxylic acid]
> 5.00	O=C(NC1(C(=O)O)CCC1)c1ccc2ccccc2c1OCCCc1ccccc1 [Example 99, 1-{[1-(3-Phenyl-propoxy)-naphthalene-2-carbonyl]-amino}-cyclobutanecarboxylic acid]
> 5.00	O=C(NC1(C(=O)O)CCC1)c1ccc2ccccc2c1OCCOc1ccccc1 [Example 100]
5.49	O=C(NC1(C(=O)O)CCC1)c1ccc2ccccc2c1OCCOc1ccc(F)cc1 [Example 105, 1-({1-[2-(4-Fluoro-phenoxy)-ethoxy]-naphthalene-2-carbonyl}-amino)-cyclobutanecarboxylic acid]
> 5.00	CC(C)(NC(=O)c1ccc2ccccc2c1OCCCc1ccc(Cl)cc1)C(=O)O [Example 106, 2-({1-[3-(4-Chloro-phenyl)-propoxy]-naphthalene-2-carbonyl}-amino)-2-methyl-propionic acid]
> 5.00	CCCCC(CC)(NC(=O)c1ccc2ccccc2c1OCCCc1ccccc1)C(=O)O (centres unmarked) [Example 116, 2-Ethyl-2-{[1-(3-phenyl-propoxy)-naphthalene-2-carbonyl]-amino}-hexanoic acid]
> 5.00	CCCCC(CC)(NC(=O)c1ccc2ccccc2c1OCCOc1ccccc1)C(=O)O (centres unmarked) [Example 117, 2-Ethyl-2-{[1-(2-phenoxy-ethoxy)-naphthalene-2-carbonyl]-amino}-hexanoic acid]
> 5.00	CCCCC(CC)(NC(=O)c1ccc2ccccc2c1OCCCC1CCCCC1)C(=O)O (centres unmarked) [Example 119, 2-{[1-(3-Cyclohexyl-propoxy)-naphthalene-2-carbonyl]-amino}-2-ethyl-hexanoic acid]
> 5.00	CC(C)(NC(=O)c1ccc2ccccc2c1OCCc1ccccc1)C(=O)O [Example 126, 2-Methyl-2-[(1-phenethyloxy-naphthalene-2-carbonyl)-amino]-propionic acid]
> 5.00	C[C@@H](NC(=O)c1ccc2ccccc2c1OCCc1ccc(F)cc1)C(=O)O [Example 130, (R)-2-({1-[2-(4-Fluoro-phenyl)-ethoxy]-naphthalene-2-carbonyl}-amino)-propionic acid]
> 5.00	CC(CCc1ccccc1)Oc1c(C(=O)NC(C)(C)C(=O)O)ccc2ccccc12 (centres unmarked) [Example 140, 2-Methyl-2-{[1-(1-methyl-3-phenyl-propoxy)-naphthalene-2-carbonyl]-amino}-propionic acid]
> 5.00	CC(C)(NC(=O)c1ccc2ccccc2c1C#CCOc1ccccc1)C(=O)O [Example 165, 2-Methyl-2-{[1-(3-phenoxy-prop-1-ynyl)-naphthalene-2-carbonyl]-amino}-propionic acid]
5.78	CC(C)(NC(=O)c1ccc2ccccc2c1C#CCCCc1ccccc1)C(=O)O [Example 166, 2-Methyl-2-{[1-(5-phenyl-pent-1-ynyl)-naphthalene-2-carbonyl]-amino}-propionic acid]
